From patent US20040062744A1, “Bactericidal disinfectant, antibacterial drug, and antibacterial material” (NICCA CHEMICAL CO., LTD., priority 2003, published 2004)

Key:
[1] = Test of skin stimulation (sealed filter paper on inner side of left upper arm); format: in vivo, human; parameters: key to primary stimulation (skin stimulation): −: negative (no reaction); ±: rubedo alone; +: rubedo and humectation or papula; ++: rubedo, edema and marked papula or small blisters; details: for primary stimulation (skin stimulation): 0.02 ml, one per person
Description: The test of skin stimulation was conducted in accordance with the following method.
A sterilizing disinfectant in an amount of 0.02 ml was placed on a filter paper and attached to a portion at the inner side of the left upper arm of a person in a manner such that the paper was sealed. The test was conducted with five male persons (A to E) and five female persons (F to J). The primary stimulation was evaluated 30 minutes and 24 hours after the attachment of the paper and the result was classified into four levels. The criterion for the classification was as follows:
Criterion for the Classification
−: negative (no reaction)
+: rubedo and humectation or papula
++: rubedo, edema and marked papula or small blisters

[2] = system: Escherichia coli (E. coli, IFO 3301); assay: Minimum bactericidal concentration (disinfecting effect), 1 minute contact; format: cell-based; details: contact 1 minute, culture 37° C. 20 hours
Description: (§1) The disinfecting effect was evaluated in accordance with the following methods.
(§2) Seven microorganisms, i.e., Staphyrococcus aureus (S. aureus, ATCC 6538P), methicillin-resistant S. aureus (MRSA IID 1677), methicillin-resistant S. aureus (MRSA of a clinically isolated strain), Escherichia coli (E. coli, IFO 3301), Klebsiella pneumoniae (pneumoniae, IFO ATCC 4352), Pseudomonus aeruginosa (P. aeruginosa, IFO 3080) and Serratia marcescens (S. marcescens of a clinically isolated strain), were used for the test.
(§3) A test microorganism in an inoculating loop to streak a portion of 8 ml of a culture medium of soybean casein digest (SCD) on the surface and cultured at 37° C. for 18 hours. The obtained medium in an amount of 1 ml was diluted with the SCD culture medium to 1/10 of the original concentration. The diluted medium in an amount of 2 ml was brought into contact with 100 ml of the SCD culture medium. The obtained medium was cultured at 37° C. for 2 hours except that the medium containing P. aeruginosa was cultured for 4 hours and a liquid of a test microorganism was prepared. The liquid of a test microorganism contained 10^6 to 10^8 live microorganisms per 1 ml of the liquid.
(§4) A series of solutions containing a composition of a sterilizing disinfectant were prepared by dilution with a physiological saline in a manner such that each solution was diluted to one half the concentration to prepare a solution having the next lower concentration. The solutions of a series each in an amount of 10 ml were separately placed into test tubes, treated for disinfection in an autoclave and mixed with a liquid of a test microorganism in an amount of 0.1 ml. After the sterilizing disinfectant and the test microorganism were kept in contact with each other for 1 minute, the obtained liquid for inoculation in an amount of 0.1 ml was added to each of three SCD-LP (lecithin polysolvate) culture media (9 ml, each) which had been disinfected in advance. After the inoculated media were cultured at 37° C. for 20 hours, the presence or the absence of turbidity in the media was examined. When the medium was transparent, it was decided that no growth of the microorganism could be recognized and the result for this medium was expressed as −. When the medium was turbid, it was decided that growth of the microorganism could be recognized and the result for this medium was expressed as+. […] The minimum concentration of the composition of a sterilizing disinfectant which gave the result of − was used as the minimum bactericidal concentration (MBC).

[3] = system: Serratia marcescens (S. marcescens of a clinically isolated strain); assay: as above; format: cell-based; details: contact 1 minute, culture 37° C. 20 hours
Description: as §1, §2, §3, §4

[4] = system: Klebsiella pneumoniae (pneumoniae, IFO ATCC 4352); assay: as above; format: cell-based; details: K. pneumoniae; contact 1 minute; culture 37° C. 20 hours
Description: as §1, §2, §3, §4

[5] = system: Staphyrococcus aureus (S. aureus, ATCC 6538P); assay: as above; format: cell-based; details: contact 1 minute, culture 37° C. 20 hours
Description: as §1, §2, §3, §4

[6] = system: Pseudomonus aeruginosa (P. aeruginosa, IFO 3080); assay: as above; format: cell-based; details: contact 1 minute, culture 37° C. 20 hours
Description: as §1, §2, §3, §4

[7] = system: methicillin-resistant S. aureus (MRSA of a clinically isolated strain); assay: as above; format: cell-based; details: contact 1 minute, culture 37° C. 20 hours
Description: as §1, §2, §3, §4

[8] = system: methicillin-resistant S. aureus (MRSA IID 1677); assay: as above; format: cell-based; details: contact 1 minute, culture 37° C. 20 hours
Description: as §1, §2, §3, §4

Substance | primary stimulation (skin stimulation) ([1]; 30 minutes after attachment) | primary stimulation (skin stimulation) ([1]; 24 hours after attachment) | skin disorder ([1]; summary in words of the test of skin stimulation) | Minimum batericidal concentration [2] | Minimum batericidal concentration [3] | Minimum batericidal concentration [4] | Minimum batericidal concentration [5] | Minimum batericidal concentration [6] | Minimum batericidal concentration [7] | Minimum batericidal concentration [8]
benzalkonium chloride [Comparative Example 5] | − and ± | + and ++ | marked skin disorder | – | – | – | – | – | – | –
benzalkonium chloride [Comparative Example 4] | – | – | – | 64 ppm | 64 ppm | 64 ppm | 32 ppm | 250 ppm | 64 ppm | 32 ppm
